Broadly, the IC50 is the concentration at which inhibition is half-maximal. Broadly, the Ki is the dissociation constant of the complex between target and ligand, obtained from inhibition or displacement.

These results are taken from paper PMC9271751, “Synthesis and Evaluation of Coumarin-Chalcone Derivatives as α-Glucosidase Inhibitors” (Frontiers in Chemistry, 2022).

Assay [1] deals with T1, α-Glucosidase from Saccharomyces cerevisiae (EC 3.2.1.20) (Saccharomyces cerevisiae, UniProt P53341).
T1 construct: purchased Sigma-Aldrich
Put plainly: biochemical. As to the method: Ethyl acetoacetate, salicylaldehyde and absolute ethanol were analytical pure grade and purchased from Aladdin (Shanghai) Reagent Co., Ltd. Piperidine; glacial acetic acid, petroleum ether and ethyl acetate were supplied by Titan (Shanghai) Technology Co., Ltd.; α-Glucosidase from Saccharomyces cerevisiae (EC 3.2.1.20), 4-nitrophenyl-α-D-[…] (p-NPG), and Dimethyl sulfoxide (DMSO) were supported by Sigma-Aldrich (United States) Chemical Co., Ltd. Melting points were tested on a micro melting-point instrument. ^1H NMR spectra were measured (CDCl3) by Bruker DPX-500 MHz AVANCE with TMS as an internal standard. Mass spectroscopy was performed on a (LCQTM). The absorbance was recorded by a micro-plate reader.
The α-glucosidase inhibitory activity assay of coumarin-chalcone derivatives 3 (a∼v) was conducted using p-NPG as a substrate. ([Pogaku et al., 2019]; [Saeedi et al., 2019]; [Xu et al., 2019]). 10 μl of the test compound and 10 μl of the enzyme (final concentration 0.1 U/ml) were added to 130 μl of PBS (0.1 M phosphate, pH 6.8), and incubated at 37°C for 10 min. Then p-NPG (final concentration 0.25 mM) was added and the absorbance change was measured by a micro-plate reader at 405 nm. All experiments were assayed four times. The percentage of inhibition was obtained using the formula: Inhibition (%) = […] × 100%, where OD1 and OD0 represent the absorbance value of the experimental group and the blank group respectively. […] The IC50 value of each compound was obtained from the fitting curve of inhibition vs. compound concentration.

Assay [2] deals with T1, α-Glucosidase from Saccharomyces cerevisiae (EC 3.2.1.20). Description: α-Glucosidase inhibition kinetics (v vs. enzyme concentration, Lineweaver-Burk plots). The assay is classed as biochemical. The following applies: for Inhibition mechanism (inhibition type): Lineweaver-Burk double reciprocal plot, p-NPG 0.25-1 mM; for Inhibition mechanism (inhibition type) / Reversibility of inhibition: compound 0, 25, 30, 40 μM; for KIS: enzyme-substrate complex, secondary plot of intercept vs. compound concentration; for Reversibility of inhibition: plots of v vs. α-glucosidase concentration (0.075-0.15 U/mL). The text has this: Generally, according to the type of inhibition, enzyme inhibitors can be divided into reversible inhibitors and irreversible inhibitors ([Abuelizz et al., 2019]). In order to obtain the principle of the combination of enzyme inhibitors and enzymes, it is necessary to study the interaction between enzyme inhibitors and enzymes. Compounds 3j, 3q and 3t with strongest inhibitory activity were chosen for the research of inhibition kinetics against α-glucosidase (the inhibitory mechanism analysis of compound 3t was shown in Figure 2 and figures for the inhibitory mechanism analysis of compounds 3j and 3q have been shown in the supporting information). A series of plots of enzymatic reaction rate (v) vs. α-glucosidase concentration in the presence of inhibitors were generated to identify the type of inhibition that is listed in Figure 1.
The inhibit type of inhibitors on α-glucosidase include four types, named competitive inhibition, non-competitive inhibition, mixed inhibition, and anti-competitive inhibition ([Abuelizz et al., 2019]). The inhibition modes of compounds 3j, 3q and 3t against α-glucosidase were investigated using Lineweaver-Burk double reciprocal plot.
The type of inhibition was identified by the plots of enzymatic reaction rate (V) vs. α-glucosidase concentration. The test method was similar to the above enzyme activity assay. In the presence of different concentrations of compounds 3j, 3q and 3t, respectively (0, 25, 30, and 40 μM), the absorbance change was detected under different concentrations of α-glucosidase (0.075, 0.1, 0.125, and 0.15 U/mL).
The inhibition mode was also detected using a similar method to that described above. In the presence of different concentrations of compounds 3j, 3q and 3t, respectively (0, 25, 30 and 40 μM), the absorbance change was measured under different concentrations of p-NPG (0.25, 0.5, 0.75, 1 mM). The inhibition mode of the inhibitor was obtianed using Lineweaver-Burk plots. The constant KI was obtained by secondary plots of the derivatives concentration (I) vs. Slope, constant KIS was obtained by secondary plots of the derivatives concentration (I) vs. Intercept.

Setting [3] is: p-NPG 0.25 mM, enzyme 0.1 U/ml, PBS pH 6.8, 37°C, read-out: IC50, α-glucosidase inhibitory activity.

Where two headings read alike, the source gives them in different places.

T1 sequence (P53341 whole entry): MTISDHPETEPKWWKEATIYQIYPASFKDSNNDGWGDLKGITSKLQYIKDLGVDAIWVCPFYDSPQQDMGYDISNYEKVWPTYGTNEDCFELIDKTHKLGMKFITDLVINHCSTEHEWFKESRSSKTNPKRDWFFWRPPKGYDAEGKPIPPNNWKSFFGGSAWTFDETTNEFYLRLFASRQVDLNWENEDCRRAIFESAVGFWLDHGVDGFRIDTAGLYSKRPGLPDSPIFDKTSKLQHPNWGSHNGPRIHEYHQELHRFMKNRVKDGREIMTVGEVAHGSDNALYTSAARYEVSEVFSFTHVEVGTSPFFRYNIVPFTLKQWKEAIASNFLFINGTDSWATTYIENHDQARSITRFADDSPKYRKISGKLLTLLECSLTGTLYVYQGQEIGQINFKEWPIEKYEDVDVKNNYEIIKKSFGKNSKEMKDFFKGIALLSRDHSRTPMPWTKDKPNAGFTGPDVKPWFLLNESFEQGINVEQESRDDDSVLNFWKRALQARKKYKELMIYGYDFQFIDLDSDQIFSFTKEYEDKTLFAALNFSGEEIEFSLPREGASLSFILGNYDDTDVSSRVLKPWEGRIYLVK

As for `O=C(/C=C/c1ccccc1)c1cc2ccccc2oc1=O` [Compound 3a, (E)-3-cinnamoyl-2H-chromen-2-one], in assay [1], the IC50 turned out to be 125.3 ± 1.18 µM. In the case of `Cc1ccc(/C=C/C(=O)c2cc3ccccc3oc2=O)cc1` [Compound 3b, (E)-3-[3-(p-tolyl)acryloyl]-2H-chromen-2-one], the concentration for half-maximal inhibition (IC50) in assay [1] (setting [3]) amounted to 95.2 ± 1.35 µM. Take `COc1ccccc1/C=C/C(=O)c1cc2ccccc2oc1=O` [Compound 3c, (E)-3-[3-(2-methoxyphenyl)acryloyl]-2H-chromen-2-one]: in assay [1] (setting [3]), the IC50 is 60.9 ± 2.74 µM. Consider `COc1cccc(/C=C/C(=O)c2cc3ccccc3oc2=O)c1` [Compound 3d, (E)-3-[3-(3-methoxyphenyl)acryloyl]-2H-chromen-2-one], for which, in assay [1] (setting [3]), the IC50 worked out at 96.4 ± 1.37 µM. On to `COc1ccc(/C=C/C(=O)c2cc3ccccc3oc2=O)cc1` [Compound 3e, (E)-3-[3-(4-methoxyphenyl)acryloyl]-2H-chromen-2-one], for which, in assay [1] (setting [3]), the IC50 is 105 ± 1.98 µM. As to `CSc1ccc(/C=C/C(=O)c2cc3ccccc3oc2=O)cc1` [Compound 3f, (E)-3-{3-[4-(methylthio)phenyl]acryloyl}-2H-chromen-2-one], in assay [1] (setting [3]), the IC50 was 75.5 ± 0.98 µM. `O=C(/C=C/c1ccccc1F)c1cc2ccccc2oc1=O` [Compound 3g, (E)-3-[3-(2-fluorophenyl)acryloyl]-2H-chromen-2-one] yielded an IC50 in assay [1] of 48.4 ± 1.42 µM.

Regarding `O=C(/C=C/c1cccc(F)c1)c1cc2ccccc2oc1=O` [Compound 3h, (E)-3-[3-(3-fluorophenyl)acryloyl]-2H-chromen-2-one], the IC50 in assay [1] is 45.7 ± 1.28 µM.

As for `O=C(/C=C/c1ccc(F)cc1)c1cc2ccccc2oc1=O` [Compound 3i, (E)-3-[3-(4-fluorophenyl)acryloyl]-2H-chromen-2-one], in assay [1], the half-inhibitory concentration (IC50) was determined as 35.68 ± 0.28 µM. Turning to `O=C(/C=C/c1ccc(F)cc1F)c1cc2ccccc2oc1=O` [Compound 3j, (E)-3-[3-(2,4-difluorophenyl)acryloyl]-2H-chromen-2-one], in assay [2], the “Inhibition mechanism (inhibition type)” value is “mixed-type inhibition” and the Reversibility of inhibition entry is recorded as “reversible”. The KIS in assay [2] (inhibition constant) amounted to 25.94 µM. In addition, the inhibitory constant (Ki) in assay [2] (inhibition constant, free enzyme, secondary plot of slope vs. compound concentration, read-out: KI) was found to be 19.5 µM. The IC50 in assay [1] (setting [3]) was found to be 30.3 ± 2.53 µM. Turning to `O=C(/C=C/c1ccc(F)c(F)c1)c1cc2ccccc2oc1=O` [Compound 3k, (E)-3-[3-(3,4-difluorophenyl)acryloyl]-2H-chromen-2-one], the concentration for half-maximal inhibition (IC50) in assay [1] (setting [3]) came out at 49.7 ± 3.28 µM. For the molecule `O=C(/C=C/c1ccccc1C(F)(F)F)c1cc2ccccc2oc1=O` [Compound 3l, (E)-3-{3-[2-(trifluoromethyl)phenyl]acryloyl}-2H-chromen-2-one], the IC50 in assay [1] (setting [3]) came out at 71.5 ± 2.14 µM. As for `O=C(/C=C/c1cccc(C(F)(F)F)c1)c1cc2ccccc2oc1=O` [Compound 3m, (E)-3-{3-[3-(trifluoromethyl)phenyl]acryloyl}-2H-chromen-2-one], in assay [1] (setting [3]), the half-inhibitory concentration (IC50) turned out to be 64.7 ± 1.82 µM. Same read-out and setting: the same measure for `O=C(/C=C/c1ccc(C(F)(F)F)cc1)c1cc2ccccc2oc1=O` [Compound 3n, (E)-3-{3-[4-(trifluoromethyl)phenyl]acryloyl}-2H-chromen-2-one]: 53.6 ± 1.95 µM. Regarding `O=C(/C=C/c1ccccc1Cl)c1cc2ccccc2oc1=O` [Compound 3o, (E)-3-[3-(2-chlorophenyl)acryloyl]-2H-chromen-2-one], in assay [1], inhibition was half-maximal at 59.7 ± 1.73 µM (IC50). With `O=C(/C=C/c1cccc(Cl)c1)c1cc2ccccc2oc1=O` [Compound 3p, (E)-3-[3-(3-chlorophenyl)acryloyl]-2H-chromen-2-one], half-maximal inhibition in assay [1] (IC50) was put at 52.6 ± 2.45 µM. For the molecule `O=C(/C=C/c1ccc(Cl)cc1)c1cc2ccccc2oc1=O` [Compound 3q, (E)-3-[3-(4-chlorophenyl)acryloyl]-2H-chromen-2-one], in assay [2], the Ki was 16.1 µM, the “Inhibition mechanism (inhibition type)” value is given as “mixed-type inhibition” and the Reversibility of inhibition result is recorded as “reversible”. In addition, in assay [2] (inhibition constant), the KIS was found to be 20.34 µM. In assay [1], this molecule displayed an IC50 of 29.7 ± 2.68 µM.

As to `O=C(/C=C/c1ccccc1Br)c1cc2ccccc2oc1=O` [Compound 3r, (E)-3-[3-(2-bromophenyl)acryloyl]-2H-chromen-2-one], the 50% inhibitory concentration (IC50) in assay [1] worked out at 38.6 ± 1.87 µM. On the same count and under the same terms, as for `O=C(/C=C/c1cccc(Br)c1)c1cc2ccccc2oc1=O` [Compound 3s, (E)-3-[3-(3-bromophenyl)acryloyl]-2H-chromen-2-one], the figure is 35.6 ± 2.18 µM. `O=C(/C=C/c1ccc(Br)cc1)c1cc2ccccc2oc1=O` [Compound 3t, (E)-3-[3-(4-bromophenyl)acryloyl]-2H-chromen-2-one]: in assay [2], the Ki worked out at 11 µM, the “Inhibition mechanism (inhibition type)” value is “mixed-type inhibition” and the Reversibility of inhibition result is recorded as “reversible”. The same molecule gave an IC50 in assay [1] of 24.1 ± 2.36 µM. As to `O=C(/C=C/c1cccs1)c1cc2ccccc2oc1=O` [Compound 3u, (E)-3-[3-(thiophen-2-yl)acryloyl]-2H-chromen-2-one], the half-inhibitory concentration (IC50) in assay [1] (setting [3]) is 109 ± 2.69 µM. For the molecule `O=C(/C=C/c1cc2ccccc2[nH]1)c1cc2ccccc2oc1=O` [Compound 3v, (E)-3-[3-( ^ 1 H-indol-2-yl)acryloyl]-2H-chromen-2-one], the IC50 in assay [1] (setting [3]) came out at 103 ± 1.45 µM.
